This note sets out measurements from ChEMBL document CHEMBL1142186, “Multistep resistance selection and postantibiotic-effect studies of the antipneumococcal activity of LBM415 compared to other agents” (2007).

Common to all, as to format: functional
Experiment [1] has as its system Streptococcus pneumoniae. Description: Antibacterial activity against clarithromycin resistance selected Streptococcus pneumoniae 3009 after 10 antibiotic-free subcultures by macrodilution method.
Experiment [2] concerns Streptococcus pneumoniae. Description: Antibacterial activity against moxifloxacin resistance selected Streptococcus pneumoniae 1076 with ParC S79Y mutation after 10 antibiotic-free subcultures by macrodilution method.
Experiment [3] concerns Streptococcus pneumoniae. Put plainly: Antibacterial activity against moxifloxacin resistance selected Streptococcus pneumoniae 3676 with GyrA E85G, GyrB S478I and ParC S79Y mutation after 10 antibiotic-free subcultures by macrodilution method.
Experiment [4] concerns Streptococcus pneumoniae. Description: Antibacterial activity against clarithromycin resistance selected Streptococcus pneumoniae 3676 after 10 antibiotic-free subcultures by macrodilution method.
Experiment [5] concerns Streptococcus pneumoniae. Put plainly: Antibacterial activity against moxifloxacin resistance selected Streptococcus pneumoniae 3243 after 10 antibiotic-free subcultures by macrodilution method.
In experiment [6] the test system is Streptococcus pneumoniae. Put plainly: Antibacterial activity against gatifloxacin resistance selected Streptococcus pneumoniae 1076 with ParC S79Y mutation after 10 antibiotic-free subcultures by macrodilution method.
In experiment [7] the test system is Streptococcus pneumoniae. Description: Antibacterial activity against clarithromycin resistance selected Streptococcus pneumoniae 3243 with 23S rRNA A2059T mutation after 10 antibiotic-free subcultures by macrodilution method.
In experiment [8] the test system is Streptococcus pneumoniae. Put plainly: Antibacterial activity against moxifloxacin resistance selected Streptococcus pneumoniae 3665 with GyrA S81Y mutation after 10 antibiotic-free subcultures by macrodilution method.
Experiment [9] has as its system Streptococcus pneumoniae. Put plainly: Antibacterial activity against gatifloxacin resistance selected Streptococcus pneumoniae 3009 after 10 antibiotic-free subcultures by macrodilution method.
Experiment [10] has as its system Streptococcus pneumoniae. Description: Antibacterial activity against moxifloxacin resistance selected Streptococcus pneumoniae 19 with GyrA S81F mutation after 10 antibiotic-free subcultures by macrodilution method.
The test system of experiment [11] is Streptococcus pneumoniae. Description: Antibacterial activity against clarithromycin resistance selected Streptococcus pneumoniae 3665 after 10 antibiotic-free subcultures by macrodilution method.
The test system of experiment [12] is Streptococcus pneumoniae. Description: Antibacterial activity against levofloxacin resistance selected Streptococcus pneumoniae 19 with GyrA S81Y and ParC D83Y mutation after 10 antibiotic-free subcultures by macrodilution method.
The subject of experiment [13] is Streptococcus pneumoniae. Put plainly: Antibacterial activity against azithromycin resistance selected Streptococcus pneumoniae 3243 with L22 insertion 93SFRPRA94 mutation after 10 antibiotic-free subcultures by macrodilution method.
In experiment [14] the test system is Streptococcus pneumoniae. Description: Antibacterial activity against moxifloxacin resistance selected Streptococcus pneumoniae 3009 with GyrA S81F and ParC D83N mutation after 10 antibiotic-free subcultures by macrodilution method.
In experiment [15] the test system is Streptococcus pneumoniae. Put plainly: Antibacterial activity against gatifloxacin resistance selected Streptococcus pneumoniae 37 with GyrA S81Y, GyrB E474K and ParC S79Y mutation after 10 antibiotic-free subcultures by macrodilution method.
Experiment [16] has as its system Streptococcus pneumoniae. Put plainly: Antibacterial activity against levofloxacin resistance selected Streptococcus pneumoniae 3009 with GyrA S81Y and ParC S79Y mutation after 10 antibiotic-free subcultures by macrodilution method.
The subject of experiment [17] is Streptococcus pneumoniae. Description: Antibacterial activity against moxifloxacin resistance selected Streptococcus pneumoniae 24 with GyrA S81Y, GyrB P413S and ParC S79F mutation after 10 antibiotic-free subcultures by macrodilution method.
Experiment [18] relates to Streptococcus pneumoniae. Put plainly: Antibacterial activity against azithromycin resistance selected Streptococcus pneumoniae 2527 after 10 antibiotic-free subcultures by macrodilution method.
Experiment [19] concerns Streptococcus pneumoniae. Description: Antibacterial activity against Streptococcus pneumoniae assessed as period of suppression of bacterial growth.
Experiment [20] relates to Streptococcus pneumoniae. Description: Antibacterial activity against azithromycin resistance selected Streptococcus pneumoniae 1077 with 23S rRNA A2058G mutation after 10 antibiotic-free subcultures by macrodilution method.

As usually defined, the MIC is the lowest concentration that inhibits growth of the organism. The low end stands for greater potency, the high end for weaker potency.

≈ marks a conversion by molar mass, not a printed value. A value given as a limit tells only on which side of the number the result lay.

As for `C=CC1=C(C(=O)O)N2C(=O)[C@@H](NC(=O)/C(=N\O)c3csc(N)n3)[C@H]2SC1`, the MIC was 0.125 µg/mL (≈ 0.316 µM) with Streptococcus pneumoniae [1]; 0.06 µg/mL (≈ 0.152 µM) in the experiment on Streptococcus pneumoniae [2]; 0.125 µg/mL (≈ 0.316 µM) against Streptococcus pneumoniae [3]; 0.06 µg/mL (≈ 0.152 µM) with Streptococcus pneumoniae [4]; 0.06 µg/mL (≈ 0.152 µM) in the experiment with Streptococcus pneumoniae [5]; 0.125 µg/mL (≈ 0.316 µM) against Streptococcus pneumoniae [6]. Also, the MIC against Streptococcus pneumoniae [7] is 0.25 µg/mL (≈ 0.632 µM); in the experiment with Streptococcus pneumoniae [8], 0.125 µg/mL (≈ 0.316 µM); with Streptococcus pneumoniae [9], 0.125 µg/mL (≈ 0.316 µM); against Streptococcus pneumoniae [10] it was 2 µg/mL (≈ 5.06 µM); against Streptococcus pneumoniae [11] it was 0.25 µg/mL (≈ 0.632 µM); in the experiment on Streptococcus pneumoniae [12], 4 µg/mL (≈ 10.1 µM). The MIC stood at 0.125 µg/mL (≈ 0.316 µM) with Streptococcus pneumoniae [13]; 0.06 µg/mL (≈ 0.152 µM) in the experiment with Streptococcus pneumoniae [14]; 4 µg/mL (≈ 10.1 µM) against Streptococcus pneumoniae [15]; 0.06 µg/mL (≈ 0.152 µM) against Streptococcus pneumoniae [16]; 2 µg/mL (≈ 5.06 µM) in the experiment with Streptococcus pneumoniae [17]; 16 µg/mL (≈ 40.5 µM) in the experiment with Streptococcus pneumoniae [18]. In the experiment with Streptococcus pneumoniae [20], this molecule showed a minimal inhibitory concentration (MIC) of 0.06 µg/mL (≈ 0.152 µM). Besides, the “Post Antibiotic Effe” value in the experiment on Streptococcus pneumoniae [19] is 1.6 h.

Take `CO/N=C(\C(=O)N[C@@H]1C(=O)N2C(C(=O)O)=C(CSc3nc(=O)c(O)nn3C)CS[C@H]12)c1csc(N)n1` [CEFTRIAXONE]: the MIC in the experiment on Streptococcus pneumoniae [1] is 0.016 µg/mL (≈ 0.0289 µM); against Streptococcus pneumoniae [2], 0.016 µg/mL (≈ 0.0289 µM); in the experiment on Streptococcus pneumoniae [3] it was 0.03 µg/mL (≈ 0.0541 µM); against Streptococcus pneumoniae [4] it was 0.03 µg/mL (≈ 0.0541 µM); in the experiment with Streptococcus pneumoniae [5] it was at most 0.008 µg/mL; against Streptococcus pneumoniae [6] it was 0.016 µg/mL (≈ 0.0289 µM). Besides, the MIC is 0.125 µg/mL (≈ 0.225 µM) with Streptococcus pneumoniae [7]; 0.06 µg/mL (≈ 0.108 µM) in the experiment with Streptococcus pneumoniae [8]; 0.016 µg/mL (≈ 0.0289 µM) against Streptococcus pneumoniae [9]; 2 µg/mL (≈ 3.61 µM) in the experiment on Streptococcus pneumoniae [10]; 0.03 µg/mL (≈ 0.0541 µM) against Streptococcus pneumoniae [11]; 2 µg/mL (≈ 3.61 µM) with Streptococcus pneumoniae [12]. For the same molecule, the MIC with Streptococcus pneumoniae [13] stood at 0.125 µg/mL (≈ 0.225 µM); in the experiment on Streptococcus pneumoniae [14], 0.03 µg/mL (≈ 0.0541 µM); in the experiment on Streptococcus pneumoniae [15] it was 2 µg/mL (≈ 3.61 µM); against Streptococcus pneumoniae [16], 0.016 µg/mL (≈ 0.0289 µM); against Streptococcus pneumoniae [17], 1 µg/mL (≈ 1.8 µM); in the experiment with Streptococcus pneumoniae [18], 2 µg/mL (≈ 3.61 µM). In the experiment with Streptococcus pneumoniae [20], this molecule yielded an MIC of 0.03 µg/mL (≈ 0.0541 µM). Besides, in the experiment with Streptococcus pneumoniae [19], the “Post Antibiotic Effe” value is 1.3 h.
